Reference: patent US8507439B2, “Neuroprotective and neurorestorative method and compositions” (priority 2005, dated 2013)
Residues, ends and D or L forms follow the SMILES beside them. No end group written: not given here. ξ: configuration not given here. *: point of attachment. Lip = lipoic acid (N-terminal), O=C(CCCC[C@@H]1CCSS1)*; Lipoyl(6ξ) = O=C(CCCCC1CCSS1)*

Legend:
[1] = tested on: primary rat cortical cultures; assay: Oxygen-glucose deprivation (anoxia) of primary rat cortical cultures, LDH release into extracellular medium; assay type: cell-based
Protocol: Peptides of the invention have been examined for neuroprotective activity in primary rat cortical cultures. […] It rescued 90-100% of the neurons that were exposed to a 3 hour oxygen-glucose deprivation (OGD).
For the tests, primary mixed neuron-glia rat cortical cultures were grown to 80-95% confluence, as previously described (Shashoua, V. E. et al., Brain Res. (2004) 1024(1-2):34-43). Their neurons were grown over a layer of glia cells and formed a network of processes. Such cultures, after a 5× wash in oxygen-free (air displaced by argon) Hanks Balanced Salt Solution (HBSS) (Shashoua, V. E. et al., Brain Res. (2004) 1024(1-2):34-43) buffer, which contained no glucose, serum, and growth factors, were transferred for 3 hrs into the Form a Scientific Anaerobic Chamber (Thermo Forma, Marietta, Ohio) (Goldberg, M. P. and Choi, D. W. J Neurosci. (1993) 13(8):3510-3524) in an atmosphere of N2, CO2 and H2 (85%, 5%, and 10%). After exposure to oxygen-glucose deprivation (OGD) the neurons, retract their processes and generate vacuoles in their perikarya. […] Large increases (about 250%) in the release of lactic acid dehydrogenase (LDH, a marker of cell injury) into the extra-cellular medium occurred. For the test of glucose-oxygen deprivation on the release of lactic acid dehydrogenase as a function of time by primary rat cortical cultures, the LDH assay of extracellular fluid (1 ml aliquots) for cultures from cells were incubated for 24 hours under normoxia conditions and were compared with cells exposed up to 4 hours of anoxia in HBSS medium followed by normoxia medium for a total period of 24 hours. LDH was measured as absorbance at 490 nm, n=6 per time point (Shashoua, V. E. et al., Brain Res. (2004) 1024(1-2):34-43) (see Table 2). Assays and detection were performed according to manufacturer's instructions using a Promega Cyto Tox 96, a nonradioactive cytotoxicity assay kit (Promega, Madison, Wis.).
For these experiments there were n=6 per assay, and a 3 hour treatment of anoxia was followed by 21 hours of normoxia reperfusion. SEQ ID NO:1 was added at 1 hour post initiation of anoxia and was also present during the 21 hours of reperfusion. […] The results for SEQ ID NO:1 as well as the results for SEQ ID NOs:3 and 4, which are shown in Tables 3 and 4 give results of LDH assay that was done on supernatant of extracellular medium.

[2] = tested on: noradrenergic neurons in the striatum; assay: Survival of noradrenergic neurons in the MPTP mouse model for Parkinson's disease; assay type: in vivo
Excerpt: Tests were done in the MPTP mouse model for Parkinson's disease.

[3] = tested on: N27 dopaminergic cells; assay: Survival of N27 dopaminergic cells in the presence of 300 μM MPP+ neurotoxic agent; assay type: cell-based, rat
[4] = tested on: SH-SY5Y human neuroblastoma cells; assay: Protection of SH-SY5Y neuroblastoma cells from Yankner peptide (b/A4), LDH content of remaining cells; assay type: cell-based; settings: 20 μM Yankner peptide alone
Protocol: A characteristic constituent of Alzheimer's Disease (AD) is the formation of plaques from the 39-43 amino acid long peptide derived from amyloid protein (Selkoe, D. TINS (1993) 16: 403-409). This molecule (b/A4) can be toxic to mammalian nerve cells. […] Yankner et al. (Science (1990) 250: 279-282) has developed this property in a culture method as an AD assay procedure.
Differentiated cultures of SH-SY5Y Human neuroblastoma cells were grown to a stage where the cells formed a network of neurites. […] At day 3, after removal of the supernatant and the debris from dead cells by 3 washes with saline, the cells were then lysed and their LDH content was assayed for cell survival by measuring the LDH present in the remaining cells. The results were compared to LDH present in untreated controls, that were incubated for 3 days with no peptide additives (Table 7). The assay assumes that the LDH content of healthy cells remains constant and can be used as an index of living cells. The experiments using anoxia in our previous work were in agreement with this assumption.
This experiment was performed in the method described above for Example 6, Experiment 1, except that the cells were incubated for 4 days instead of 3 to enhance the degenerative effect of the Yankner peptide. […]

[5] = tested on: SHSY cells; assay type: cell-based, human; settings: 20 μM Yankner peptide alone
Protocol: Aliquots of 3×10^5 SHSY cells were plated in each well of a 24-well microtiter plate in 1 ml of medium containing no peptides (Control=Ctrl), 20 μM Yankner peptide (Yankner), or 20 μM Yankner peptide+75 μM of DQ (SEQ ID NO:2) (Yankner+BTX). Plates were incubated at 37° C. in a 5% CO2 incubator for 3 days, then each well was washed twice with 1×PBS to remove loosely bound cells. The number of remaining cells per ml was determined by microscopy. […] Error bars denote one standard deviation. […] BTX was DQ (SEQ ID NO:2) in this experiment.

[6] = tested on: SHSY cells; assay: LDH levels in residual surviving SHSY cells after Yankner peptide; assay type: cell-based, human; settings: Yankner peptide alone
Protocol: In a tissue culture model for Alzheimer's disease, treatment with the Yankner peptide (amyloid fragment) causes cell death within 3 days. […] By studying the time course of cell death in this culture model for Alzheimer's disease, it was determined that about 60% of the cells die within 24 hrs. When the neuroprotective/neurorestorative peptide of the invention was added to the cells at the 24 hour time point (e.g., 24 hours after the cells were contacted with the Yankner peptide), over 40% of the injured neurons that were destined to die on day 3 were rescued.
Aliquots of 3×10^5 SHSY cells were plated in each well of a 24-well microtiter plate in 1 ml of medium containing no peptides (control=Ctrl), 20 μM Yankner peptide (Yankner), 20 μM Yankner peptide+75 μM DQ peptide (SEQ ID NO:2) added at time of plating (Yankner+BTX Simultaneous), or 20 μM Yankner+75 μM BTX-639 added 24 hr post plating (Yankner+BTX 24 Hr Post). Plates were incubated at 37° C. in a 5% CO2 incubator for 3 days, then each well was washed twice with 1×PBS to remove loosely bound cells. Whole cell lysates were prepared from the remaining attached (viable) cells, and Lactate dehydrogenase (LDH) activity measured as described in methods. The results are illustrated in FIG. 2, in which each histobar represents the mean of 11 independent trials. Error bars denote one standard deviation. […]

[7] = 300 μM MPP+ + 14 μM peptide, n = 8

QDDDVE
reversal of the effects of anoxia / neuroprotection from anoxia (in words) [1]: reverse effects of anoxia

CN1CC=C(c2ccccc2)CC1 [MPTP, 1-methyl-4-phenyl-1,2,3,6 tetrahydropyridine, reference compound]
neurons that survive ([2]; 4 days following an IP injection 30 mg/Kg of MPTP, no peptide): 12.5%

CC(C)[C@H](NC(=O)[C@H](CCC(=O)O)NC(=O)CCCCC1CCSS1)C(=O)N[C@@H](CC(=O)O)C(=O)N[C@@H](CC(=O)O)C(=O)N[C@@H](CC(=O)O)C(=O)N[C@@H](CCC(N)=O)C(=O)O (stereo partly drawn) [[Lip]-EVDDDQ] ({Lipoyl(6ξ)}-EVDDDQ-OH; C-terminus assumed)
passage through the Blood-Brain Barrier (in words) ([2]; concluded from the in vivo effect): can get through the Blood-Brain Barrier

[Lip]-VFTPPS (Lip-VFTPPS) [VFTPPS conjugated to lipoic acid at the N-terminal amino acid]
reversal of the effects of anoxia / neuroprotection from anoxia (in words) [1]: promote neuroprotection from anoxia
LDH (A 490 nm) ([1]; Table 4, anoxia + 10 ng/ml): 0.56 ± 0.08 A 490 nm
LDH Released % of Normoxia ([1]; Table 4, anoxia + 10 ng/ml): 169 ± 24 % of Normoxia
LDH (A 490 nm) ([1]; Table 4, anoxia + 100 ng/ml): 0.37 ± 0.04 A 490 nm
LDH Released % of Normoxia ([1]; Table 4, anoxia + 100 ng/ml): 112 ± 12 % of Normoxia

[Ac]-QDDDVE (Ac-QDDDVE)
LDH (A 490 nm) ([1]; Table 4, anoxia + 1 ng/ml): 0.33 ± 0.02 A 490 nm
LDH Released % of Normoxia ([1]; Table 4, anoxia + 1 ng/ml): 100 ± 6 % of Normoxia
LDH (A 490 nm) ([1]; Table 4, anoxia + 10 ng/ml): 0.22 ± 0.04 A 490 nm
LDH Released % of Normoxia ([1]; Table 4, anoxia + 10 ng/ml): 67 ± 12 % of Normoxia
LDH (A 490 nm) ([1]; Table 4, anoxia + 100 ng/ml): 0.16 ± 0.05 A 490 nm
LDH Released % of Normoxia ([1]; Table 4, anoxia + 100 ng/ml): 48 ± 15 % of Normoxia
% Rescue per Treatment time 0 hours ([3]; 42 μM peptide + 300 μM MPP+): 100 ± 2%
% Rescue per Treatment time 24 hours ([3]; 42 μM peptide + 300 μM MPP+): 42 ± 4%
% Rescue per Treatment time 48 hours ([3]; 42 μM peptide + 300 μM MPP+): 27 ± 3%

CC[C@H](C)[C@H](NC(=O)[C@H](C)NC(=O)CNC(=O)[C@H](CCCCN)NC(=O)[C@H](CC(N)=O)NC(=O)[C@H](CO)NC(=O)CN)C(=O)N[C@H](C(=O)NCC(=O)N[C@@H](CC(C)C)C(=O)N[C@@H](CCSC)C(=O)O)[C@@H](C)CC [Yankner peptide] (H-GSNKGAIIGLM-OH)
OD 490 nm ([4]; 3 days): 0.568 OD 490 nm
OD 490 nm ([4]; 4 days): 0.127 OD 490 nm
cell death [5]: 50%
cells that die within 24 hrs [6]: about 60%

VFTPPS
reversal of the effects of anoxia / neuroprotection from anoxia (in words) [1]: reverse effects of anoxia

C[n+]1ccc(-c2ccccc2)cc1 [MPP+, 1-methyl-4-phenylpyridinium, reference compound]
% Rescue after Treatment for 0 hours ([3]; 300 μM MPP+ alone): 100 ± 2%
% Rescue after Treatment for 24 hours ([3]; 300 μM MPP+ alone): 0 ± 3%
% Rescue after Treatment for 48 hours ([3]; 300 μM MPP+ alone): 0 ± 4%

EVDDDQ [SEQ ID NO: 1]
reversal of the effects of anoxia / neuroprotection from anoxia (in words) [1]: active in reversing the effects of anoxia
effects of anoxia, cell morphology and LDH release (in words) ([1]; 1 ng/ml up to 10 ng/ml in the media, even after the 3 hr OGD treatment, 21 hours normoxia reperfusion): all the effects of anoxia were reversed and cell morphology and LDH release returned to normal
LDH (A 490 nm) ([1]; Table 3, anoxia + 1 ng/ml): 0.33 ± .02 A 490 nm
LDH Released % of Normoxia ([1]; Table 3, anoxia + 1 ng/ml): 100 % of Normoxia
LDH (A 490 nm) ([1]; Table 3, anoxia + 10 ng/ml): 0.22 ± .03 A 490 nm
LDH Released % of Normoxia ([1]; Table 3, anoxia + 10 ng/ml): 68 % of Normoxia
LDH (A 490 nm) ([1]; Table 3, anoxia + 100 ng/ml): 0.161 ± .04 A 490 nm
LDH Released % of Normoxia ([1]; Table 3, anoxia + 100 ng/ml): 50 % of Normoxia
LDH release compared with normoxia controls (in words) ([1]; high doses): decreased LDH release to lower amounts than those present in normoxia controls
neurons rescued ([1]; neurons exposed to a 3 hour oxygen-glucose deprivation (OGD)): 90-100%
% Rescue after Treatment for 24 hours ([3]; 300 μM MPP+ + 14 μM (10 μg/ml) peptide, n = 8): 82 ± 2%
% Rescue after Treatment for 24 hours ([3]; 300 μM MPP+ + 14 μM (10 μg/ml) peptide, n = 8, listed as SEQ ID NO:1): 82%
% Rescue after Treatment for 0 hours [3, 7]: 100 ± 2%
% Rescue after Treatment for 48 hours [3, 7]: 56 ± 4%
